Tests used:
Format in all cases: functional
Mus musculus [1] = assay: Compound was tested for analgesic activity by writhing test after subcutaneous administration in mice; details: sc
Mus musculus [2] = assay: Compound was tested for analgesic activity by tail-flick test after subcutaneous administration in mice; details: sc
Mus musculus [3] = assay: Compound was tested for analgesic activity by writhing test after peroral administration in mice; details: po
Mus musculus [4] = assay: Compound was tested for analgesic activity by tail-flick test after peroral administration in mice; details: po

| Compound | ED50 (Mus musculus [1]) [mg/kg] | ED50 (Mus musculus [2]) [mg/kg] | ED50 (Mus musculus [3]) [mg/kg] | ED50 (Mus musculus [4]) [mg/kg] |
| --- | --- | --- | --- | --- |
| CN1CC[C@]23CCCC[C@H]2[C@H]1Cc1ccc(Oc2ccc(O)cc2)cc13.Cl | 1.3 | 6.69 | – | – |
| Cc1ccc(Oc2ccc3c(c2)[C@@]24CCCC[C@H]2[C@@H](C3)N(C)CC4)cc1.Cl | 23 | – | – | – |
| CN1CC[C@]23CCCC[C@H]2[C@H]1Cc1ccc(Oc2ccccc2F)cc13.O=C(O)C(=O)O | 3 | 23.3 | – | – |
| CN1CC[C@]23CCCC[C@H]2[C@H]1Cc1ccc(Oc2ccc(F)cc2)cc13 | 1 | 37.3 | – | – |
| COc1ccc(Oc2ccc3c(c2)[C@@]24CCCC[C@H]2[C@@H](C3)N(C)CC4)cc1 | 2.1 | 25 | – | – |
| CN1CC[C@]23CCCC[C@H]2[C@H]1Cc1ccc(O)cc13.O=C(O)C(O)C(O)C(=O)O | 0.11 | 1.21 | 1.4 | 8.5 |
| CN1CC[C@]23CCCC[C@H]2[C@H]1Cc1ccc(Oc2ccccc2)cc13.O=C(O)C(O)C(O)C(=O)O | 1.25 | 19.7 | 2.3 | 51.7 |
| CCO.CN1CC[C@]23CCCC[C@H]2[C@H]1Cc1ccc(Oc2ccccc2O)cc13.O=C(O)C(O)C(O)C(=O)O | 1.8 | 11.4 | – | – |
| CCO.CN1CC[C@]23CCCC[C@H]2[C@H]1Cc1ccc(Oc2cccc(O)c2)cc13.O=C(O)C(O)C(O)C(=O)O | 9 | 80.1 | – | – |
| CN1CC[C@]23CCCC[C@H]2[C@H]1Cc1ccc(Oc2ccccn2)cc13.O=C(O)C(O)C(O)C(=O)O | 1.1 | 10.1 | – | – |
| CN1CC[C@]23CCCC[C@H]2[C@H]1Cc1ccc(Oc2cccc(F)c2)cc13.O.O=C(O)C(O)C(O)C(=O)O | 1.85 | 71 | – | – |
| COc1ccccc1Oc1ccc2c(c1)[C@@]13CCCC[C@H]1[C@@H](C2)N(C)CC3 | 0.49 | 24.4 | – | – |
| CN1CC[C@]23c4c5ccc(O)c4O[C@H]2[C@@H](O)C=C[C@H]3[C@H]1C5.CN1CC[C@]23c4c5ccc(O)c4O[C@H]2[C@@H](O)C=C[C@H]3[C@H]1C5.O=S(=O)(O)O | 0.46 | – | – | 31.2 |
| COc1cccc(Oc2ccc3c(c2)[C@@]24CCCC[C@H]2[C@@H](C3)N(C)CC4)c1 | 2.5 | 39.7 | – | – |
| COc1ccc2c3c1O[C@H]1[C@@H](O)C=C[C@H]4[C@@H](C2)N(C)CC[C@@]341.COc1ccc2c3c1O[C@H]1[C@@H](O)C=C[C@H]4[C@@H](C2)N(C)CC[C@@]341.O.O=P(O)(O)O.O=P(O)(O)O [CODEINE PHOSPHATE] | 2.3 | – | 24 | 119 |
| Br.COc1ccc2c(c1)[C@@]13CCCCC1[C@@H](C2)N(C)CC3 (some centres not stated) [LEVOMETHORPHAN HYDROBROMIDE] | 0.64 | – | 1.5 | 5.27 |
